Measurements from patent US10351570B2, “Compounds and uses thereof” (Kala Pharmaceuticals, Inc., priority 2013, dated 2019).
Where two headings read alike, the source gives them in different places.

What was measured:
[1] = Milling with Pluronic F127 into mucus penetrating particles; particle size by dynamic light scattering; assay type: physicochemical; details: formulated as MPP, milled with Pluronic F127 in DPBS; for Particle Size: dynamic light scattering
Source text: Compounds of the present invention synthesized in accordance with the preceding Examples were formulated as mucus penetrating particles (MPP). Specifically, compounds I-2, compound I-5, and compound I-6 were each milled in the presence of Pluronic F127 (F127) to determine whether F127 1) aids particle size reduction to several hundreds of nanometers and 2) physically (non-covalently) coats the surface of generated nanoparticles with a mucoinert coating that would minimize particle interactions with mucus constituents and prevent mucus adhesion.
A milling procedure was employed in which an aqueous dispersion containing coarse drug particles and Pluronic F127 (F127) was milled with grinding medium until particle size was reduced below 400 nm as measured by dynamic light scattering. Table 4 lists the size of particles and polydispersity index (a measure of the width of the particle size distribution) generated using this technique. In this example suspensions were buffered using DPBS (Dulbecco's Phosphate-Buffered Saline) which yields a suspension that is both isotonic and has a physiologically relevant pH.

[2] = Physical and chemical stability of I-2 solutions at room temperature; assay type: physicochemical; details: F127 (0.5%), 20 mM Tris (pH 8); precipitation
Protocol: Solutions of I-2 were formulated with F127 or Tween 80, and under a range of pH values. Briefly, I-2 was first completely solubilized using an acidic solution (0.1 N HCl) at a high concentration of […]. The final formulation was diluted to a solution consisting of 0.5% (w/v) I-2 into buffered solution containing F127 or Tween 80 as described in Table 5. Following dilution, the pH of the formulations was measured using pH indicator strips (PEHANON) and confirmed to be within expected range (±0.5 units of target pH).
Physical and chemical stability of the solutions at room temperature (20-25° C.) were assessed after 7-10 days (tfinal). Physical instability in a solution can manifest as the precipitation and sedimentation of the drug of interest and excipients over time. To assess physical stability, the formulations at tfinal were first filtered through a 300 kDa modified polyethersulfone filter membrane (Nanosep) to remove any precipitate in the solution. The concentration of I-2 in the filtrates was then measured and compared to that at t=0. The purity of I-2 in the unfiltered solution was also evaluated at tfinal, to further confirm chemical stability. This parameter is defined by the area under the signal peak that is attributed to compound I-2 as a percentage of all peaks reported by in the sample by HPLC (% peak area).

[3] = PK study after topical ocular administration of compound I-2 solution; assay type: in vivo, Dutch-belted rabbits; details: Dutch-belted, rabbit, topical or ocular, 50 μL of 0.5% solution, topical 0.5% solution, 50 μL BID 5 days; for AUC(0-t): read-out: AUC0-12 hr
Protocol: (§1) In this example, the formulation consisted of 0.5% I-2, 0.5% F127, in 20 mM citrate buffer pH 6.0 and NaCl (added to produce isotonic formulation).
(§2) The portion of the retina and choroid collected and analyzed was an 8-mm round punch where the macula is located in humans.

[4] = Nanoparticle mobility in human cervicovaginal mucus (dark field microscopy); details: low pH of CVM
Protocol: In order to determine whether the generated nanoparticles have reduced interactions with mucins and are therefore able to move within mucus without becoming trapped, particles were incubated with human cervicovaginal mucus (CVM) and observed via dark field microscopy. In a typical experiment, 51 μL of the nanoparticle suspension was added to 20 μl of CVM. Observations were made in a minimum of three distinct and randomly selected areas of the CVM sample. Control particles with known behavior were used to qualify the CVM sample as appropriate for the assay.

[5] = Draize-Ocular Irritation assessment; assay type: in vivo, Dutch-belted rabbits; details: topical 0.5% solution, 50 μL BID 5 days
Protocol: as §1, §2

SMILES	Polydispersity Index (PDI) [1]	Particle Size [1]	physical stability of solution [2]	Cmax ([3]; Choroid (8-mm punch))	Tmax ([3]; Choroid (8-mm punch))	AUC(0-t) ([3]; Choroid (8-mm punch))	Cmax ([3]; Plasma)	Tmax ([3]; Plasma)	AUC(0-t) ([3]; Plasma)	half-life ([3]; Plasma, read-out: t½ (converted))	Cmax ([3]; Retina (8-mm punch))	Tmax ([3]; Retina (8-mm punch))	AUC(0-t) ([3]; Retina (8-mm punch))	solubility in CVM [4]	Draize-Ocular Irritation [5]
Cc1ccc(Oc2ccc3nc(NC(=O)CC4COC4)cn3n2)cc1NC(=O)c1cccc(F)c1 [Compound I-6]	0.206	245 nm	–	–	–	–	–	–	–	–	–	–	–	–	–
Cc1cc(C(=O)Nc2cc(Oc3ccc4nc(NC(=O)CN5CC[C@H](N(C)C)C5)cn4n3)ccc2C)n(C)n1 [Compound I-2]	–	–	major physical instability	1790 nM	2 h	12.5 µM·h	5.96 nM	0.5 h	0.0256 µM·h	3.63 h	218 nM	0.5 h	2.06 µM·h	soluble	no irritation
Cc1cc(C(=O)Nc2cc(Oc3ccc4nc(NC(=O)NC5COC5)cn4n3)ccc2C)n(C)n1 [Compound I-5]	0.160	276 nm	–	–	–	–	–	–	–	–	–	–	–	–	–
